Where a name gives a salt, the structure may show the parent alone.
Experiments:
HCT116 [1] = test: viability inhibition vs untreated; higher = more cytotoxic; details: 72 h
HCT116 [2] = details: 72 h
Experimental: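 HCT116 control and MTA1-KO (CRISPR) HCT116 cells were seeded in 384-well plates (800 cells/well), treated 16 h later with 237 metabolism-related anticancer drugs at five doses (10 uM, 2 uM, 400 nM, 80 nM, 16 nM) for 72 h, two replicates; viability by CCK8. Values are % inhibition of viability relative to untreated cells, plus fitted IC50.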

Compound	viability inhibition (HCT116 [1]; genotype: MTA1-KO, 16 nM)	viability inhibition (HCT116 [1]; genotype: MTA1-KO, 80 nM)	viability inhibition (HCT116 [1]; genotype: MTA1-KO, 400 nM)	viability inhibition (HCT116 [1]; genotype: MTA1-KO, 2000 nM)	viability inhibition (HCT116 [1]; genotype: MTA1-KO, 10000 nM)	viability inhibition (HCT116 [1]; genotype: control, 16 nM)	viability inhibition (HCT116 [1]; genotype: control, 80 nM)	viability inhibition (HCT116 [1]; genotype: control, 400 nM)	viability inhibition (HCT116 [1]; genotype: control, 2000 nM)	viability inhibition (HCT116 [1]; genotype: control, 10000 nM)	IC50 (HCT116 [2]; genotype: MTA1-KO)	IC50 (HCT116 [2]; genotype: control)
CC1=C(/C=C/C(C)=C/C=C/C(C)=C/C(=O)Nc2ccc(O)cc2)C(C)(C)CCC1 [Fenretinide]	-13%	-18.5%	-15%	-14.4%	-2.3%	23.7%	2.62%	1.09%	9.79%	15.3%	> 10 µM	> 10 µM
O=c1[nH]cc(F)c(=O)[nH]1 [Fluorouracil]	-23.1%	-26%	-27.2%	1.88%	53.9%	-8.89%	-1.82%	8.13%	22.2%	83.9%	6.47 µM	3.81 µM
COc1ccc([C@@H]2OC[C@H]3[C@@H]2CO[C@@H]3c2ccc(O[C@@H]3O[C@H](CO)[C@@H](O)[C@H](O)[C@H]3O)c(OC)c2)cc1OC [Forsythin]	5.1%	-3.89%	-0.379%	2.87%	27.7%	8.22%	24%	15.4%	-3.75%	24.5%	> 10 µM	> 10 µM
NC(=O)N/N=C/c1ccc([N+](=O)[O-])o1 [Furacilin]	-10.7%	-2.24%	-4.15%	1.42%	5.25%	6.06%	11.2%	22.1%	21.4%	-6.53%	> 10 µM	> 10 µM
CC1(C)OCCn2c1nc1c(N3CCOCC3)nc(-c3cnc(N)nc3)nc12 [GDC0084]	-2.94%	9.67%	48%	77.1%	83.3%	7.86%	5.85%	42.9%	78.2%	76.1%	0.327 µM	0.356 µM
CN(C)C1CCN(C(=O)c2ccc(NC(=O)Nc3ccc(-c4nc(N5CCOCC5)nc(N5CCOCC5)n4)cc3)cc2)CC1 [Gedatolisib]	-5.92%	17.3%	63.7%	80.1%	82.8%	19.9%	26.7%	68.6%	88.3%	103%	0.187 µM	0.305 µM
O=c1cc(O)c(Cl)c[nH]1 [Gimeracil]	-16.5%	-10.4%	-7.69%	-8.52%	5.58%	-1.24%	-1.82%	-11.8%	-5.96%	-7.24%	> 10 µM	> 10 µM
N[C@@H](CCC(=O)N[C@@H](CS)C(=O)NCC(=O)O)C(=O)O [Glutathione]	-21.2%	-27.6%	-21.1%	-16.6%	-21.7%	8.47%	0.941%	-7.27%	8.72%	5.08%	> 10 µM	> 10 µM
Cc1nc(Nc2cnn(C3CCNCC3)c2)nc2c1N(C)C(=O)c1cc3ccccc3cc1N2C [HTH-01-015]	-1.49%	5.48%	-1.32%	5.37%	62.5%	2.33%	10.7%	23.3%	17.9%	40.7%	7.99 µM	> 10 µM
O=C(C[C@H]1NCCC[C@@H]1O)Cn1cnc2cc(Br)c(Cl)cc2c1=O [Halofuginone hydrobromide]	2.99%	-4.56%	73.6%	106%	103%	-19.5%	-8.31%	72.1%	111%	101%	0.374 µM	0.371 µM
NS(=O)(=O)c1cc2c(cc1Cl)NCNS2(=O)=O [Hydrochlorothiazide]	-4.21%	-3.92%	-3.75%	-5.89%	-2.82%	18.6%	15.8%	14.2%	-4.67%	13.5%	> 10 µM	> 10 µM
CCCC(=O)O[C@]1(C(=O)CO)CC[C@H]2[C@@H]3CCC4=CC(=O)CC[C@]4(C)[C@H]3[C@@H](O)C[C@@]21C [Hydrocortisone butyrate]	-3.78%	-0.209%	-6.9%	-15.3%	17.3%	-10.8%	-15%	-3.07%	-16.7%	41.3%	> 10 µM	> 10 µM
CC(C)n1nc(-c2ccc3oc(N)nc3c2)c2c(N)ncnc21 [INK 128]	-1.98%	6.98%	33.7%	44.4%	70%	52.9%	40.8%	50.1%	52.3%	76.6%	1.04 µM	< 0.016 µM
O=C(O)CNC(=O)c1c(O)c2ccccc2n(Cc2ccccc2)c1=O [IOX 2]	15.5%	-17.5%	-20.5%	-22%	9.66%	-6.02%	3.87%	-7.43%	-4.74%	-0.498%	> 10 µM	> 10 µM
NS(=O)(=O)c1ccc(S(=O)(=O)Nc2cccc3c(Cl)c[nH]c23)cc1 [Indisulam]	-0.89%	30.5%	59.8%	90.3%	96.6%	-5.81%	-7.51%	10.8%	90.9%	90.2%	0.129 µM	0.445 µM
Cn1cc(C[C@@H](N)C(=O)O)c2ccccc21 [Indoximod]	-22.6%	-22%	-24.2%	-19%	3.49%	-15.9%	-19.5%	-14.6%	-4.79%	3.27%	> 10 µM	> 10 µM
NNC(=O)c1ccncc1 [Isoniazid]	-5.84%	-18.3%	-14.4%	-18.3%	-0.042%	-10.3%	-11.9%	-11.5%	1.11%	38%	> 10 µM	> 10 µM
CC(C)CC(N)=O [Isovaleramide]	-15.6%	-17.2%	-11.3%	-17.2%	-13%	-6.22%	-6.16%	-2.21%	-1.96%	-10.4%	> 10 µM	> 10 µM
N#Cc1ccnc(N2C(=O)CC[C@H]2C(=O)N(c2cncc(F)c2)[C@H](C(=O)NC2CC(F)(F)C2)c2ccccc2Cl)c1 [Ivosidenib]	3.53%	-8.17%	-0.782%	12.7%	61.7%	-4.33%	-18.7%	-4.67%	-16.1%	-2.68%	5.82 µM	> 10 µM

Compound	viability inhibition (HCT116 [1]; genotype: MTA1-KO, 16 nM)	viability inhibition (HCT116 [1]; genotype: MTA1-KO, 80 nM)	viability inhibition (HCT116 [1]; genotype: MTA1-KO, 400 nM)	viability inhibition (HCT116 [1]; genotype: MTA1-KO, 2000 nM)	viability inhibition (HCT116 [1]; genotype: MTA1-KO, 10000 nM)	viability inhibition (HCT116 [1]; genotype: control, 16 nM)	viability inhibition (HCT116 [1]; genotype: control, 80 nM)	viability inhibition (HCT116 [1]; genotype: control, 400 nM)	viability inhibition (HCT116 [1]; genotype: control, 2000 nM)	viability inhibition (HCT116 [1]; genotype: control, 10000 nM)	IC50 (HCT116 [2]; genotype: MTA1-KO)	IC50 (HCT116 [2]; genotype: control)
O=C(Oc1ccc([N+](=O)[O-])cc1)N1CCC(C(O)(c2ccc3c(c2)OCO3)c2ccc3c(c2)OCO3)CC1 [JZL184]	6.97%	15.2%	21.9%	37.7%	62.3%	9.18%	-4.77%	-6.67%	-12.4%	2.68%	5.53 µM	> 10 µM
O=S(=O)(NCCSSCCNS(=O)(=O)c1cc(Cl)ccc1Cl)c1cc(Cl)ccc1Cl [KC7F2]	3.77%	14.6%	13.5%	9.73%	16.2%	25.3%	14.3%	11.1%	9.06%	24.4%	> 10 µM	> 10 µM
Nc1ccc(/C=C/C(=O)NCc2cc3cc(-c4ccc(C(=O)N5CCC(F)(F)CC5)cc4)cc(-c4ccc(F)cc4)c3o2)cn1 [KPT9274]	-17.2%	-10%	-24%	-17.1%	8.44%	15.8%	-9.31%	7.28%	14.9%	13.4%	> 10 µM	> 10 µM
O=c1c(O)c(-c2ccc(O)cc2)oc2cc(O)cc(O)c12 [Kaempferol]	9.79%	3.08%	3.45%	10.9%	39%	7.5%	18.7%	-0.112%	8.84%	23.1%	> 10 µM	> 10 µM
N#CCCCSC(=N)N [Kevetrin hydrochloride]	12.4%	15%	12.2%	33.3%	57.5%	16.1%	19.7%	23%	-4.7%	23.9%	2.38 µM	> 10 µM
COC(=O)[C@@H](N)CCCN=C(N)N[N+](=O)[O-] [L-NAME hydrochloride]	-9.14%	-19.4%	-19.9%	-26%	24.3%	-17.9%	-12.2%	-11.4%	-20.1%	-19.3%	> 10 µM	> 10 µM
NC(N)=NCCC[C@H](N)C(=O)O [L-arginine monohydrochloride]	-2.61%	-19.3%	-11.5%	-6.84%	12.2%	-3.45%	-8.59%	1.36%	1.49%	23.5%	> 10 µM	> 10 µM
COC(=O)c1ccc(O)c(NC(=O)COc2ccc(C34CC5CC(CC(C5)C3)C4)cc2)c1 [LW6]	1.16%	1.05%	-7.41%	5.31%	49.9%	-13.6%	-18.1%	-10.6%	-9.1%	-7.79%	9.47 µM	> 10 µM
CC(=O)O[C@H]1C[C@H](O[C@H]2[C@@H](O)C[C@H](O[C@H]3[C@@H](O)C[C@H](O[C@H]4CC[C@@]5(C)[C@H](CC[C@@H]6[C@@H]5C[C@@H](O)[C@]5(C)[C@@H](C7=CC(=O)OC7)CC[C@]65O)C4)O[C@@H]3C)O[C@@H]2C)O[C@H](C)[C@H]1O[C@@H]1O[C@H](CO)[C@@H](O)[C@H](O)[C@H]1O [Lanatoside C]	2.02%	2.18%	87.7%	105%	107%	-11.4%	12.6%	88%	99.5%	101%	0.286 µM	0.145 µM
OCc1ccc(-c2nn(Cc3ccccc3)c3ccccc23)o1 [Lificiguat]	-2.39%	4.47%	8.63%	37.6%	92.2%	0.501%	5.33%	-0.629%	22.8%	100%	2.7 µM	2.38 µM
C[C@@H](C(=O)Nc1ccc(Cl)cc1)[C@H]1CC[C@@H](c2ccnc3ccc(F)cc32)CC1 [Linrodostat]	1.54%	1.21%	3.39%	14.8%	44.2%	10.9%	21.6%	17.7%	28.7%	22%	> 10 µM	> 10 µM
O=C(O)c1nn(Cc2ccc(Cl)cc2Cl)c2ccccc12 [Lonidamine]	-2.77%	-15.4%	-12.8%	-13.1%	17.1%	4.32%	-14%	-10.1%	0.337%	23.5%	> 10 µM	> 10 µM
CC[C@H](C)C(=O)O[C@H]1C[C@@H](C)C=C2C=C[C@H](C)[C@H](CC[C@@H]3C[C@@H](O)CC(=O)O3)[C@H]21 [Lovastatin]	-10.2%	-12.6%	-7.31%	-11.7%	-8.01%	2.13%	-3.28%	8.89%	5.64%	29.4%	> 10 µM	> 10 µM
O=c1cc(-c2ccc(O)c(O)c2)oc2cc(O)cc(O)c12 [Luteolin]	-5.43%	-9.09%	-11.5%	-2.12%	7.81%	2.79%	2.36%	3.47%	12.7%	12.7%	> 10 µM	> 10 µM
O=[N+]([O-])c1ccc(Nc2nc(N3CCOCC3)nc(N3CCOCC3)n2)cc1 [MHY1485]	7.65%	14.4%	13.3%	8.16%	45.5%	-9.75%	7.66%	14.9%	23.1%	74.8%	> 10 µM	4.59 µM
Cc1ccc(Oc2nc3cc(-c4ccc(-c5ccccc5)cc4)c(Cl)cc3[nH]2)cc1C(=O)O [MK3903]	-12.7%	-22.9%	-10.6%	0.304%	68%	11.1%	8.79%	24.8%	19.4%	59.8%	5.67 µM	7.34 µM
Cc1ccccc1C(=O)N1CCc2cc(-c3nc(NC(=O)Cc4ccc5c(c4)OCO5)sc3C)ccc21 [ML385]	4.66%	-3.65%	-2.81%	0.224%	49.3%	3.74%	-1.5%	2.66%	-0.526%	29.4%	> 10 µM	> 10 µM
NCc1ccc(S(N)(=O)=O)cc1 [Mafenide hydrochloride]	-13%	-12.9%	-16.5%	-13.4%	-15.9%	-4.74%	6.87%	-2.33%	-2.58%	-6.77%	> 10 µM	> 10 µM

Reference: the supplement of paper PMC10477900
